Measured values from patent US20250326722A1 (SHANGHAI HANSOH BIOMEDICAL CO., LTD., priority 2022, published 2025).

Assays:
[1] = target: PCSK9 secreted by HepG2 cells (Homo sapiens (Human), UniProt Q8NBP7); experiment: Effect on the concentration of PCSK9 secreted by HepG2 cells (ELISA); assay type: cell-based; settings: 48 hours incubation, read-out: Inhibitory activity on PCSK9, IC50
From the text: • 1. Experimental objective: To detect the inhibitory effect of the compounds on PCSK9. • 2. Experimental instruments and reagents: • 2.1 Instruments:
• CircuLex Human PCSK9 ELISA kit (MBL: CY-8079); • DMEM (Gibco: 31966-021) • FBS (Sigma: S5394) • Compound plate (Thermo: 1353506) • Complete culture medium: DMEM+10% FBS+1×P/S; • Experimental culture medium: DMEM+10% FBS • Cell strain: HepG2 (ATCC: HB-8065)
A self-adhesive seal was applied, the plate was placed on a plate shaker at room temperature, gently shaken, uniformly mixed, and incubated for 1 hour. • 11) The plate was placed on the plate washer, the washing liquid was set to 350 μL per well, and the plate was washed 4 times repeatedly. • 12) 100 μL/well of an HRP-conjugated detection antibody was added, a self-adhesive seal was applied, and the plate was placed on the plate shaker, well mixed uniformly, and incubated for 1 hour. • 13) The plate was placed on the plate washer, the washing liquid was set to 350 μL per well, and the plate was washed 4 times repeatedly. • 14) 100 μL/well of Substrate reagent was added, and the plate was placed in the dark, applied with a self-adhesive seal, placed on the plate shaker, well mixed uniformly, and incubated for 10-20 minutes. • 15) 100 μL/well of Stop solution (1N H2SO4) was added and mixed uniformly. • 16) The optical density (OD) value in each well was measured in sequence at a wavelength of 450 nm by the microplate reader. Detection was carried out within 30 min after the reaction was stopped.
(§1) After the OD values were read by the microplate reader, the OD value of the 0-concentration standard in the standard group was subtracted from the OD values of the standards, control group, and samples to obtain the actual OD values for these wells. A standard curve was plotted with Graphpad and the concentration of the sample was calculated. If the dilution was performed during the sample detection, the calculated sample concentration was necessarily multiplied by the corresponding dilution ratio in the final calculation, which was the actual concentration of the sample. Inhibition rate=(actual concentration in control-actual concentration in sample)/actual concentration in control*100. According to the inhibition rates corresponding to the different concentrations, IC50 was derived by Graphpad.

[2] = test system: LDLR level in HepG2 cells; experiment: Effect on the LDLR level in HepG2 cells (ELISA); assay type: cell-based, human; parameters: concentration or dose not given beside the values; settings: 48 hours incubation, LDLR ELISA of lysate
Method: To detect the effect of the compounds on the LDLR protein level.
Envision (PE-Cisbio: 2105-0020), centrifuge (Eppendorf: 5810R), water purifier (THERMO: Pacific T II+Micropure), plate washer (Thermo: […] VERSA), and microplate shaker (Thermo: 88882006)
• 1) HepG2 cell strain was cultured in the complete culture medium at 37° C., 5% CO2 to 70-90% confluence. • 2) The cells were digested and resuspended in the experimental culture medium, inoculation was performed at 25,000 cells/well/200 μL in a 96-well cell culture plate, and the cells were cultured at 37° C., 5% CO2 for 20-24 hours. • 3) The culture medium was removed from the cell culture plate, and the cell culture plate was washed once by adding 200 μl of the experimental culture medium to each well. • 4) Preparation of positive control compound and compound to be tested: the positive control compound and the compound to be tested were diluted on the compound plate. • 5) The diluted compound was added to the cell culture plate at 250 μL per well and incubated at 37° C. and 5% CO2 for 48 hours. • 6) The cell culture medium was removed, the cells were washed with PBS, and 50 μL of the cell lysis buffer and the protein inhibitor were added. • 7) After centrifugation, the lysate was removed and the sample was stored for later use. • 8) Preparation of standard curve: corresponding volumes of Dilution buffer were successively added to respective standard tubes, and the standard was diluted in series by taking the corresponding volume from the original tube or the last concentration tube. • 9) Preparation of washing liquid: 10× Wash buffer was diluted into 1× with Milli-Q for later use. • 10) According to the standard curve wells and sample wells set according to a plate map, 80 μL/well of the corresponding standards and samples were added to the wells, with 2 replicate wells. A well in which no standard was added was used as a background value well. A self-adhesive seal was applied, the plate was placed on a plate shaker at room temperature, gently shaken, uniformly mixed, and incubated for 2 hours. • 11) The plate was placed on the plate washer, the washing liquid was set to 350 μL per well, and the plate was washed 4 times repeatedly. • 12) 200 μL of Human LDLR conjugate was added, a self-adhesive seal was applied, and the plate was placed on the plate shaker, well mixed uniformly, and incubated for 2 hours. • 13) The plate was placed on the plate washer, the washing liquid was set to 350 μL per well, and the plate was washed 4 times repeatedly. • 14) 200 μL/well of Substrate solution was added, and the plate was placed in the dark, applied with a self-adhesive seal, placed on the plate shaker, well mixed uniformly, and incubated for 20 minutes. • 15) 50 μL/well of Stop solution was added and mixed uniformly over 20 min. • 16) The optical density (OD) value in each well was measured in sequence at a wavelength of 450 nm by the microplate reader.
as §1, with “Concentration increase %=(actual” for “Inhibition rate=(actual”, “control*100.” for “control*100. According to the inhibition rates corresponding to the different concentrations, IC50 was derived by Graphpad.”

PCSK9 protein = PCSK9 protein (Homo sapiens (Human), UniProt Q8NBP7); experiment: Binding experiment: surface plasmon resonance (SPR) binding to PCSK9 protein
From the text: • 1. Experimental objective: To detect the action of compounds to bind PCSK9 protein by a conventional surface plasmon resonance (SPR) method.

[3] = Pharmacokinetic determination in mice (plasma); assay type: in vivo, C57BL/6J mice; settings: C57 mice, PO administration, 5 mpk; for AUC(0-inf) / half-life / MRT / Cmax: male, C57BL/6J, mouse, 5 mg/kg; for AUC(0-inf): read-out: Area under the curve AUC0-∞; for half-life: read-out: Half-life t1/2 (converted); for MRT: read-out: Mean residence time MRT; for Cmax: read-out: Plasma concentration Cmax
Method: C57BL/6J mice were used as test animals to study the pharmacokinetic behavior of the compounds of the present disclosure in mice (plasma) after oral and intravenous administration.
C57 mice, male, purchased from Shanghai Bk Lab Animal Co., Ltd., with animal production license number (SCXK (Shanghai) 2013-0006 NO.311620400001794).
• Preparation of oral drug: 10% Solutol HS15
10 g of Solutol HS15 solid was weighed, dissolved in 90 mL of pure water, uniformly mixed, stirred, and ultrasonically treated to form a clear solution.
The compound of the present disclosure was weighed and dissolved in this solution, uniformly shaken, and ultrasonically treated for 15 minutes to obtain a colorless clear solution with a concentration of 0.5 mg/mL. • Preparation of intravenous drug: 5% DMSO+10% Solutol HS15+85% PBS […]
3 male C57 mice were fasted overnight and then respectively administered PO at a dose of 5 mg/kg and a volume of 10 mL/kg. […]
Before and after administration of mice, 0.04 mL of blood was collected from the orbit at 0.083 (iv), 0.25, 0.5, 1, 2, 4, 8, and 24 hours, and placed in EDTA-K2 test tubes, which was centrifuged at 6000 rpm at 4° C. for 6 min to separate plasma which was stored at −80° C.; and the […] were fed 4 h after administration.
The final determination results were obtained by using an LCMS/MS method.
The main pharmacokinetic parameters were calculated using WinNonlin 6.1.

Sequence of PCSK9 protein (Q8NBP7 153-692): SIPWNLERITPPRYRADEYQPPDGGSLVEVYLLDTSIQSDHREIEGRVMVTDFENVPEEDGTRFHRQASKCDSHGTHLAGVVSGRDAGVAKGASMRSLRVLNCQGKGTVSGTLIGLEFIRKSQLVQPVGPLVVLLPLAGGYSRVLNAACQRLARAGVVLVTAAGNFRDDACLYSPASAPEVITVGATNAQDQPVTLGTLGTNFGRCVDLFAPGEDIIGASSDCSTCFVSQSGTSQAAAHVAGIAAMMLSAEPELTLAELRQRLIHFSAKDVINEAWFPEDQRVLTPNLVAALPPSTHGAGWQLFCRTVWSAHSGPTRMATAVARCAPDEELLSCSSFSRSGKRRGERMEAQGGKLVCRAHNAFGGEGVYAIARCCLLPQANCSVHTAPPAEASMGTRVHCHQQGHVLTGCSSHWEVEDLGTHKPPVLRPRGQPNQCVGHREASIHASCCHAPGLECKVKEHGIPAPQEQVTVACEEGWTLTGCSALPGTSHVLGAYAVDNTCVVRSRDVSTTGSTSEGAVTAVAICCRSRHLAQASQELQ
Sequence of PCSK9 secreted by HepG2 cells (Q8NBP7 153-692): as above
Sequence of PCSK9 secreted by HepG2 cells (Q8NBP7 31-152 partner): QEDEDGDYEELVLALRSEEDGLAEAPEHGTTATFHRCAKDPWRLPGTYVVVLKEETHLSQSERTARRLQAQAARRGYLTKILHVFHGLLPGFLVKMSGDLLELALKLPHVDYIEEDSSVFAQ

| IC50 [1] [µM] | Kd (PCSK9 protein) [µM] | Time to peak tmax [3] [h] | Structure (SMILES) | further results |
| --- | --- | --- | --- | --- |
| 6.3 |  |  | Fc1cnn2c(-c3ccc(N[C@H]4CC[C@H](Nc5ncc(OC(F)F)cn5)C4)nc3)cccc12 [Example 102, (1S,3S)—N1-(5-(difluoromethoxy)pyrimidin-2-yl)-N^3-(5-(3-fluoropyrazolo[1,5-a]pyridin-7-yl)pyridin-2-yl)cyclopentane-1,3-diamine] | LDLR expression level [2]: 215% |
| 0.5 | 0.0012 |  | O=C1c2ncccc2CN1c1ccc(N[C@H]2CC[C@H](Nc3ncc(C4CC4)nn3)C2)nc1 [Example 126, 6-(6-(((1S,3S)-3-((6-cyclopropyl-1,2,4-triazin-3-yl)amino)cyclopentyl)amino)pyridin-3-yl)-5,6-dihydro-7H-pyrrolo[3,4-b]pyridin-7-one] |  |
| 22.3 | 0.0049 |  | O=c1ccccn1-c1ccc(N[C@H]2CC[C@H](Nc3nc4cc(C5CC5)ccn4n3)C2)nc1 [Example 135, 6′-(((1S,3S)-3-((7-cyclopropyl-[1,2,4]triazolo[1,5-a]pyridin-2-yl)amino)cyclopentyl)amino)-2H-[1,3′-bipyridinyl]-2-one] |  |
| 9.9 | 0.0012 |  | Cc1ccn2nc(N[C@H]3CC[C@H](Nc4ccc(N5Cc6cccnc6C5=O)cn4)C3)nc2c1 [Example 130, 6-(6-(((1S,3S)-3-((7-methyl-[1,2,4]triazolo[1,5-a]pyridin-2-yl)amino)cyclopentyl)amino)pyridin-3-yl)-5,6-dihydro-7H-pyrrolo[3,4-b]pyridin-7-one] |  |
| 14 | 0.0042 |  | O=c1ccccn1-c1ccc(N[C@H]2CC[C@H](Nc3nc4cc(C(F)(F)F)ccn4n3)C2)nc1 [Example 113, 6′-(((1S,3S)-3-((7-(trifluoromethyl)-[1,2,4]triazolo[1,5-a]pyridin-2-yl)amino)cyclopentyl)amino)-2H-[1,3′-bipyridinyl]-2-one] |  |
| 22.8 | 0.003 |  | O=C1c2cccc(C(F)(F)F)c2CN1c1ccc(N[C@H]2CC[C@H](Nc3nc4cc(F)ccn4n3)C2)nc1 [Example 162] |  |
| 11.8 | 0.0018 |  | O=C1c2ncccc2CN1c1ccc(N[C@H]2CC[C@H](Nc3ncc(C4CC4)cn3)C2)nc1 [Example 127] |  |
| 12 | 0.0011 |  | O=C1c2ncncc2CN1c1ccc(N[C@H]2CC[C@H](Nc3ncc(OC(F)F)cn3)C2)nc1 [Example 132, 6-(6-(((1S,3S)-3-((5-(difluoromethoxy)pyrimidin-2-yl)amino)cyclopentyl)amino)pyridin-3-yl)-5,6-dihydro-7H-pyrrolo[3,4-d]pyrimidin-7-one] |  |
| 24.5 | 0.0032 | 0.5 | O=C1c2cccnc2CN1c1ccc(N[C@H]2CC[C@H](Nc3ncc(C(F)(F)F)nn3)C2)nc1 [Example 145] | AUC(0-inf) [3]: 12.2 µg·h/mL; half-life [3]: 3.8 h; MRT [3]: 4.6 h; Cmax [3]: 2.37 µg/mL |
| 19.9 | 0.0028 | 0.5 | O=C1c2nc(C(F)(F)F)ccc2CN1c1ccc(N[C@H]2CC[C@H](Nc3nc4cc(F)ccn4n3)C2)nc1 [Example 155, 6-(6-(((1S,3S)-3-((7-fluoro-[1,2,4]triazolo[1,5-a]pyridin-2-yl)amino)cyclopentyl)amino)pyridin-3-yl)-2-(trifluoromethyl)-5,6-dihydro-7H-pyrrolo[3,4-b]pyridin-7-one] | AUC(0-inf) [3]: 25.5 µg·h/mL; half-life [3]: 5.9 h; MRT [3]: 1.9 h; Cmax [3]: 10 µg/mL |
| 3.8 | 0.0031 | 0.5 | Cc1nccc2c1CN(c1ccc(N[C@H]3CC[C@H](Nc4ncc(OC(F)F)cn4)C3)nc1)C2=O [Example 115, 2-(6-(((1S,3S)-3-((5-(difluoromethoxy)pyrimidin-2-yl)amino)cyclopentyl)amino)-3-yl)-4-methyl-2,3-dihydro-1H-pyrrolo[3,4-c]pyridin-1-one] | AUC(0-inf) [3]: 20.9 µg·h/mL; half-life [3]: 5.8 h; MRT [3]: 5.3 h; Cmax [3]: 4.29 µg/mL |
| 16.8 | 0.0008 |  | O=C1c2cccnc2CN1c1ccc(N[C@H]2CC[C@H](Nc3ncc(OCC(F)(F)F)cn3)C2)nc1 [Example 124] |  |
| 1.2 | 0.0022 | 0.5 | O=C1c2cccnc2CN1c1ccc(NC2CCC(Nc3ncc(OC(F)(F)F)cn3)C2)nc1 [Example 122, 6-(6-(((1S,3S)-3-((5-(trifluoromethoxy)pyrimidin-2-yl)amino)cyclopentylamino)pyridin-3-yl)-6,7-dihydro-5H-pyrrolo[3,4-b]pyridin-5-one] | Area under the curve AUC0-∞ [3]: 13.239 µg·h/mL; Half-life t1/2 [3]: 3.2 h; Mean residence time MRT [3]: 4.5 h; Plasma concentration Cmax [3]: 2.333 µg/mL |
